In PubChem BioAssay AID270 (DTP/NCI, 2004):
Records with an inconclusive call do not appear. *1 amine or outer side, *2 acyl side, *3 side chain or, on linkers, in order; H or OH if unused. Where a SMILES comes first, the peptide text is derived from it. Bridges are numbered along the chain shown (N, C = ends). Roman numbers before positions name the chains, in order. [ ]: non-standard residue; d: D form. Actinocin(1to9) = Cc1c2oc3c(C)ccc(C(=O)[*:2])c3nc-2c(C(=O)[*:1])c(N)c1=O; X1 = O=C1CC(C(=O)[*:2])N([*:1])C1; NMeV = CN[CH](C(=O)O)C(C)C; Sar = CNCC(=O)O

System: BDF1 mice, s.c. Lewis lung carcinoma, T/C %
Assay: NCI In Vivo Anticancer Drug Screen. Data for tumor model Lewis Lung Carcinoma (subcutaneous) in B6D2F1 (BDF1) mice
In short: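 Transplanted tumors grown in mice; compound vs vehicle dosing; endpoint survival or tumor size; ratio T/C.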

[1] = endpoint: median survival time, dose: 8.0 mg/kg/injection, schedule: Q01DX009 (ip), vehicle: saline, higher = longer survival
[2] = endpoint: median survival time, dose: 16.0 mg/kg/injection, schedule: Q01DX009 (ip), vehicle: saline, higher = longer survival

Cc1c2oc3c(C)ccc(C(=O)NC4C(=O)NC(C(C)C)C(=O)N5CCCC5C(=O)N(C)CC(=O)N(C)C(C(C)C)C(=O)OC4C)c3nc-2c(C(=O)NC2C(=O)NC(C(C)C)C(=O)N3CC(=O)CC3C(=O)N(C)CC(=O)N(C)C(C(C)C)C(=O)OC2C)c(N)c1=O (stereo not drawn) (I: TV[X1][Sar][NMeV] / II: TVP[Sar][NMeV]; ester I:1-I:C, II:1-II:C; linker I:N-II:N via Actinocin(1to9); configuration not given here)
T/C (endpoint: median survival time, dose: 3.1 micrograms/kg/injection, schedule: Q01DX009 (ip), vehicle: water, higher = longer survival): 112 % of control
T/C (endpoint: median survival time, dose: 6.2 micrograms/kg/injection, schedule: Q01DX009 (ip), vehicle: water, higher = longer survival): 111 % of control
T/C (endpoint: median survival time, dose: 9.4 micrograms/kg/injection, schedule: Q04DX003 (ip), vehicle: water, higher = longer survival): 108 % of control
T/C (endpoint: median survival time, dose: 12.5 micrograms/kg/injection, schedule: Q01DX009 (ip), vehicle: water, higher = longer survival): 87 % of control
T/C (endpoint: median survival time, dose: 18.8 micrograms/kg/injection, schedule: Q04DX003 (ip), vehicle: water, higher = longer survival): 109 % of control
T/C (endpoint: median survival time, dose: 37.5 micrograms/kg/injection, schedule: Q04DX003 (ip), vehicle: water, higher = longer survival): 108 % of control

CCN(CC)CCCC(C)Nc1c2ccc(Cl)cc2nc2ccc(OC)cc12 (stereo not drawn)
T/C [1]: 103 % of control
T/C (endpoint: median survival time, dose: 8.0 mg/kg/injection, schedule: Q01DX009 (ip), vehicle: suspension in saline, higher = longer survival): 95 % of control
T/C [2]: 101 % of control
T/C (endpoint: median survival time, dose: 16.0 mg/kg/injection, schedule: Q01DX009 (ip), vehicle: suspension in saline, higher = longer survival): 113 % of control
T/C (endpoint: median survival time, dose: 32.0 mg/kg/injection, schedule: Q01DX009 (ip), vehicle: saline with Tween-80, higher = longer survival): 163 % of control
T/C (endpoint: median survival time, dose: 32.0 mg/kg/injection, schedule: Q01DX009 (ip), vehicle: suspension in saline, higher = longer survival): 104 % of control
T/C (endpoint: median survival time, dose: 64.0 mg/kg/injection, schedule: Q01DX009 (ip), vehicle: saline with Tween-80, higher = longer survival): 112 % of control
T/C (endpoint: median survival time, dose: 64.0 mg/kg/injection, schedule: Q01DX009 (ip), vehicle: saline, higher = longer survival): 101 % of control
T/C (endpoint: median survival time, dose: 64.0 mg/kg/injection, schedule: Q01DX009 (ip), vehicle: suspension in saline, higher = longer survival): 105 % of control

COC1=C(N2CC2)C(=O)C(OC)=C(N2CC2)C1=O
T/C (endpoint: median survival time, dose: 0.25 mg/kg/injection, schedule: Q01DX009 (ip), vehicle: Klucel (hydroxypropylcellulose) (HPC), higher = longer survival): 97 % of control
T/C (endpoint: median survival time, dose: 0.5 mg/kg/injection, schedule: Q01DX009 (ip), vehicle: Klucel (hydroxypropylcellulose) (HPC), higher = longer survival): 106 % of control
T/C (endpoint: median survival time, dose: 1.0 mg/kg/injection, schedule: Q01DX009 (ip), vehicle: Klucel (hydroxypropylcellulose) (HPC), higher = longer survival): 101 % of control
T/C (endpoint: median survival time, dose: 2.0 mg/kg/injection, schedule: Q01DX009 (ip), vehicle: Klucel (hydroxypropylcellulose) (HPC), higher = longer survival): 111 % of control
T/C (endpoint: median survival time, dose: 4.0 mg/kg/injection, schedule: Q01DX009 (ip), vehicle: Klucel (hydroxypropylcellulose) (HPC), higher = longer survival): 124 % of control

C=C(CC(=O)O)C(=O)O (tested in a mixture with another compound)
T/C (endpoint: median survival time, dose: 3.12 mg/kg/injection, schedule: Q01DX009 (ip), vehicle: other, higher = longer survival): 94 % of control
T/C (endpoint: median survival time, dose: 6.25 mg/kg/injection, schedule: Q01DX009 (ip), vehicle: other, higher = longer survival): 101 % of control
T/C (endpoint: median survival time, dose: 12.5 mg/kg/injection, schedule: Q01DX009 (ip), vehicle: other, higher = longer survival): 103 % of control
T/C (endpoint: median survival time, dose: 25.0 mg/kg/injection, schedule: Q01DX009 (ip), vehicle: other, higher = longer survival): 88 % of control

CS(=O)(=O)OCC#CCOS(C)(=O)=O
T/C (endpoint: mean tumor weight, dose: 16.0 mg/kg/injection, schedule: Q01DX011 (ip), vehicle: saline, higher = larger tumour): 91 % of control
T/C (endpoint: mean tumor weight, dose: 32.0 mg/kg/injection, schedule: Q01DX011 (ip), vehicle: saline, higher = larger tumour): 63 % of control

C/C=C(\C)C(=O)N/N=C\c1cc(Cl)cc(Cl)c1O
T/C (endpoint: median survival time, dose: 12.5 mg/kg/injection, schedule: Q01DX009 (ip), vehicle: olive oil, sesame oil, peanut oil, higher = longer survival): 102 % of control
T/C (endpoint: median survival time, dose: 25.0 mg/kg/injection, schedule: Q01DX009 (ip), vehicle: olive oil, sesame oil, peanut oil, higher = longer survival): 112 % of control
T/C (endpoint: median survival time, dose: 50.0 mg/kg/injection, schedule: Q01DX009 (ip), vehicle: olive oil, sesame oil, peanut oil, higher = longer survival): 90 % of control
T/C (endpoint: median survival time, dose: 200.0 mg/kg/injection, schedule: Q01DX009 (ip), vehicle: olive oil, sesame oil, peanut oil, higher = longer survival): 86 % of control

O=[N+]([O-])O.[Ga]
T/C [1]: 118 % of control
T/C [2]: 158 % of control
T/C (endpoint: median survival time, dose: 32.0 mg/kg/injection, schedule: Q01DX009 (ip), vehicle: saline, higher = longer survival): 99 % of control
